Results on three compounds are retold here after patent publication US6552010B1 (Genelabs Technologies, Inc., priority 1999, dated 2003).

The structures appear in SMILES notation.

Series [1] can be described thus: Stability of DHEA polymorph preparations under ambient conditions.
A short description of series [2]: Uptake and absorption of DHEA polymorph preparations upon oral administration.
Series [3] concerns SLE patients. Kind of series: Clinical trial: responders by window analysis of SLEDAI, SLAM, Patient VAS and KFSS. As to conditions: for Responders (3% window), number of patients / Responders (3% window), percent / Responders (5% window), number of patients / Responders (5% window), percent / Responders (10% window), number of patients / Responders (10% window), percent: 200 mg DHEA per day orally. It counts as in vivo, human. On the procedure:
For each of the disease activity variables (SLEDAI and SLAM) and constitutional symptom variables (Patient VAS and KFSS), the value of interest for each patient is determined as the difference between a pretreatment baseline value, calculated as the mean of two baseline values, taken prior to any treatment with DHEA), and values taken during treatment, calculated as the mean of all values obtained during on-treatment scheduled visits, e.g., 13, 26, 39, and 52 weeks of treatment.
For each of the variables, an improvement in the variable is defined as either (i) no change in the variable or (ii) a decrease in the variable. Thus, for example, an improvement in a baseline SLEDAI score of 5.00 would be any value 5.00 or less. A change in a variable that represents a worsening of the state or condition is any increase in the measured value.
Thus, for a baseline SLEDAI value of 5.0, and a 3% cap, the maximum allowed increase in SLEDAI value, for classification as a 3% responder is 0.15
The mean baseline scores represent the mean of two value determinations made prior to treatment.
Each group, in turn, can be broken down into three subgroups: (I) total patient population (II) all patients with SLEDAI values greater than 2, and (III) patients having SLEDAI values greater than 2 and currently being treated with prednisone (at dose greater than 2 mg/prednisone /day), where the number of patients in each subgroup is indicated by N in the Table 5.
Treatment was with 200 mg DHEA per day, administered orally in capsule form, or with a non-drug capsule (placebo). Mean duration of the treatment for each group was somewhat higher for the placebo group (308 days for placebo vs 288.4 days for DHEA, but median durations were almost the identical (362 vs. 359 days, respectively.).
The three columns in the table represent total of the three subgroups for both the placebo and treatment group. The three rows represent responders in which an improvement (no change or decrease in value) in three the three of the four variables was observed and an increase in the fourth variable of no more than 3% (first row), 5% (second row), and 10% (third row) of the pretreatment baseline value.

The test system of series [4] is SLE patients. Kind of series: Clinical trial: percent responders (weighted average change from baseline, no clinical deterioration). As to conditions: 200 mg DHEA per day orally. It counts as in vivo, human. How it is done:
(§1) Clinical trial results were analyzed for each group (placebo and DHEA-treated) as a whole (“per-protocol”), as well as broken down into three subgroups: all patients with SLEDAI values greater than 2 (“active SLE”), and patients having SLEDAI values greater than 2 and receiving corticosteroids and/or immunosuppressives (“more severe SLE”).
(§2) Patients received 200 mg DHEA per day, administered orally in capsule form, or with a non-drug capsule (placebo). Mean duration of the treatment for each group was somewhat higher for the placebo group (308.4 days for placebo vs 288.4 days for DHEA, but median durations were almost the identical (362 vs. 359 days, respectively.).
The last three columns of the table show the results of the study for patients experiencing at least one flare during the study.

The subject of series [5] is SLE patients. In words: Clinical trial: effect of DHEA treatment on SLE flares. It counts as in vivo, human. As to conditions: for Patients with at least one flare, patients/total / Patients with at least one flare, percent: 200 mg DHEA per day orally. On the procedure: A clinical trial was conducted to determine the effect of DHEA treatment on SLE flares. An SLE flare is a significant new clinical manifestation of the disease (i.e., one that was not previously present in the patient or not previously as severe) and/or a clinical intervention. Table 6 identifies the clinical findings or interventions that were scored as flares in the present study. Any patient having at least one of these finding or interventions was scored as having a flare.
as §1, §2
At about 200 days of treatment, incidence of flare is at least about 5% lower in the treated patients, and from this point on, the difference in flare incidence between the treated and placebo patients grows to at least about 10%.

Where [6] appears, read: Group II: All patients with SLEDAI > 2.
The mark [7] stands for this setting: Group II: All patients with SLEDAI > 2, N = 132.
Setting [8] is: Group III: All patients with SLEDAI > 2, Pred > 0.
Setting [9] is: Group III: All patients with SLEDAI > 2, Pred > 0, N = 73.
The mark [10] stands for this setting: Active SLE (SLEDAI > 2 at baseline).
[11] abbreviates: More Severe SLE (SLEDAI > 2 and receiving corticosteroids and/or immunosuppressives at baseline).

On to `C[C@]12CC[C@H](O)CC1=CC[C@@H]1[C@@H]2CC[C@]2(C)C(=O)CC[C@@H]12` [DHEA form I, dehydroepiandrosterone], for which the Stability entry in series [1] is recorded as “highly stable under ambient conditions”. The “Uptake by the GI tract” value in series [2] is “good uptake by the GI tract”.

As for `C[C@]12CC[C@H](O)CC1=CC[C@@H]1[C@@H]2CC[C@]2(C)C(=O)CC[C@@H]12` [DHEA form II, dehydroepiandrosterone], the Stability entry in series [1] is “stable under ambient conditions”. Further, in series [2], the Rate of absorption entry is listed as “rapid rate of absorption (greater than the form I polymorph)” and the “Uptake by the GI tract” value is given as “good uptake by the GI tract”.

Take `C[C@]12CC[C@H](O)CC1=CC[C@@H]1[C@@H]2CC[C@]2(C)C(=O)CC[C@@H]12` [DHEA, dehydroepiandrosterone]: in series [3] (Group I: All patients), the “Improvement over placebo, responders (3% window)” value (“Improvement … (3% window)” below) is 39.8%; the “Improvement over placebo, responders (5% window)” value (shortened to “Improvement … (5% window)”) turned out to be 32.1%; the “Improvement over placebo, responders (10% window)” value (“Improvement … (10% window)” for short) was 38.0%. In addition, in series [3] (Group I: All patients, N = 170), the “Responders (3% window), number of patients” value stood at 77; the “Responders (3% window), percent” value is listed as 45.3%; the “Responders (5% window), number of patients” value is reported as 79; the “Responders (5% window), percent” value came out at 46.5%. Besides, in series [3] (Group I: All patients, N = 170), the “Responders (10% window), number of patients” value is reported as 92 and the “Responders (10% window), percent” value stood at 54.1%. Besides, in series [3] (setting [6]), the “Improvement … (3% window)” value came out at 54.4%; the “Improvement … (5% window)” value stood at 47.1%; the “Improvement … (10% window)” value turned out to be 51.1%. In series [3] (setting [7]), the “Responders (3% window), number of patients” value was found to be 72; the “Responders (3% window), percent” value is on record as 54.5%; the “Responders (5% window), number of patients” value worked out at 73; the “Responders (5% window), percent” value was 55.3%. In addition, in series [3] (setting [7]), the “Responders (10% window), number of patients” value is reported as 84 and the “Responders (10% window), percent” value worked out at 63.6%. Moreover, in series [3] (setting [8]), the “Improvement … (3% window)” value was found to be 64.3%; the “Improvement … (5% window)” value is recorded as 68.6%; the “Improvement … (10% window)” value is reported as 82.2%. In series [3] (setting [9]), the “Responders (3% window), number of patients” value stood at 39; the “Responders (3% window), percent” value was found to be 53.4%; the “Responders (5% window), number of patients” value was determined as 40; the “Responders (5% window), percent” value is reported as 54.8%. In series [3] (setting [9]), the “Responders (10% window), number of patients” value is 45 and the “Responders (10% window), percent” value was found to be 61.6%. Moreover, in series [4] (setting [10]), the “Responders, patients/total” value is “(87/132)” and the “Responders, percent” value stood at 66%. In addition, in series [4] (setting [11]), the “Responders, patients/total” value is “(51/80)” and the “Responders, percent” value worked out at 64%. For the same compound, in series [4] (Per Protocol population), the “Responders, patients/total” value is recorded as “(99/170)” and the “Responders, percent” value is 58%. In addition, in series [5] (setting [10]), the “Patients with at least one flare, patients/total” value is given as “(31/132)” and the “Patients with at least one flare, percent” value (“Patients … percent” for short) is listed as 24%. Moreover, in series [5] (FIG. 1, active SLE patients, compared to the placebo group), the “Time of treatment at which reduction of the risk of flare begins” value was “about 85 days”. In addition, in series [5] (FIG. 1, at about 200 days of treatment), the “Incidence of flare lower in treated patients than placebo” value was “at least 5%”. In addition, the “Difference in flare incidence between treated and placebo patients” value in series [5] (FIG. 1, grows to this after about 200 days of treatment) is given as “at least 10%”. Besides, in series [5] (setting [11]), the “Patients with at least one flare, patients/total” value is on record as “(21/80)” and the “Patients … percent” value came to 26%. Also, in series [5] (Per Protocol population), the “Patients with at least one flare, patients/total” value is recorded as “(37/170)” and the “Patients … percent” value was determined as 22%. Besides, the “Effect on occurrence of flares” value in series [5] (Table 8 study, effect increased with severity of disease) is “reduced the occurrence of flares”.
